{"source": "patent US12486528B2", "about": "“Compositions and methods for measuring and inhibiting calpain-5 activity” (The Board of Trustees of the Leland Stanford Junior …, priority 2019, dated 2025)", "key": {"[1]": {"target": "CAPN5 wild-type (Homo sapiens, UniProt O15484)", "sequence (O15484 whole entry)": "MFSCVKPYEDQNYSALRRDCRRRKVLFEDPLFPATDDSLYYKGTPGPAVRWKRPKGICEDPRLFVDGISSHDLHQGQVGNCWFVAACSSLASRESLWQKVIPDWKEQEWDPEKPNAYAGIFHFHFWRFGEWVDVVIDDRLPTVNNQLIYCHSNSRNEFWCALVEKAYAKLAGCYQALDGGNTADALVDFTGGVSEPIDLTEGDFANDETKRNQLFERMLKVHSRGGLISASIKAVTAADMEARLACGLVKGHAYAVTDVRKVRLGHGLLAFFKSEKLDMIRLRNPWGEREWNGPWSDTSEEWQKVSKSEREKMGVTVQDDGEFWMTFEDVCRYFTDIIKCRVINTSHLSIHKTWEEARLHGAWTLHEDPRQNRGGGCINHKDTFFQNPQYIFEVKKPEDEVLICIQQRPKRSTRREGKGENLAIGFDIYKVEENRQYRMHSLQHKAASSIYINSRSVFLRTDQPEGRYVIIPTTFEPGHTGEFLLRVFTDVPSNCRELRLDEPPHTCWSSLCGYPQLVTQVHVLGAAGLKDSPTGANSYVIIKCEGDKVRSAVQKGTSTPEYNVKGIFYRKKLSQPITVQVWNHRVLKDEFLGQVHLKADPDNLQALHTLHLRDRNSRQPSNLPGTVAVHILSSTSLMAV", "test": "FRET-based CAPN5 inhibition assay, wild-type protease", "type": "biochemical", "settings": "for IC50: CAPN5 WT; for inhibition of wildtype CAPN5: CAPN5 wild-type", "experimental": "(§1) We have optimized the CAPN5 assay and developed a high throughput CAPN5 inhibition assay which utilizes 384-well plates and uses less than 50 nM protease for each experimental condition. Calpain proteolytic activity was measured by hydrolysis of DABCYL-TPLKSPPPSPR (SEQ ID NO:3)-EDANS (Calpain Substrate III; Calbiochem). Briefly, 50 nM of purified CAPN5-G267S protease core domain was added to a reaction buffer containing 50 mM imidazole (pH 7.0), 200 mM NaCl, 20 mM CaCl2, 1 mM EDTA, 8 mM Li-acetate, 0.19 mM Facade®-EPC, 1 mM TCEP, 0.8% (v/v) glycerol, 4% (v/v) 1,3-butanediol. 8 μL of protease was added to each well of the 384-well plates. Varying concentrations of […] (final concentration of 0.1 μM to 100 μM; 4 μL in each well) were added and the reaction was incubated at 37° C. for 30 minutes. After incubation, 8 μL of Calpain Substrate III was added to each well (final concentration of 40 μM; total reaction volume was 20 μL) and EDANS signal was measured on a fluorimetric plate reader (Tecan Spark, Mannedorf Switzerland). All experiments were performed in triplicate. Reaction rates were fit to the Hill equation to determine the IC50 values in GraphPad Prism 8. This assay condition is compatible with CAPN1 and CAPN5 wild-type. We have chosen CAPN5-G267S for initial inhibitor screening, since it has higher activity than CAPN5 wild-type and the mutation is located at the G2-loop which is away from the active site that is likely to have identical specificity to CAPN5 wild-type specificity.\n(§2) We have identified the PDGFB protein as a substrate. We discovered a likely proteolytic site for CAPN5 on PDGFB, and sought to use this information to inhibit proteolysis assuming the alteration of a robust endogenous substrate of CAPN5 would create an opportunity for more specific inhibition of CAPN5. We generated two artificial peptides by methylating only P1-Lysine (1-Methylated; FIG. 7A) or both P1-Lysine and P1′-Lysine (2-Methylated; FIG. 7B) expecting the methylation would make the PDGFB peptide motif resistant to CAPN5 proteolysis. We tested their inhibitory potential against CAPN5-G267S using our high throughput FRET-based CAPN5 inhibition assay. […] We further tested them with the CAPN5 wild-type and CAPN5-R243L mutant proteases. Both methylated PDGFB peptides inhibited CAPN5-R243L activity at the nanomolar IC50 (FIG. 7E)."}, "[2]": {"target": "CAPN5-R243L (Homo sapiens, UniProt O15484, R243L)", "sequence (O15484 whole entry R243L)": "as the sequence (O15484 whole entry) above, with R243L counted along it", "test": "FRET-based CAPN5 inhibition assay, R243L mutant protease", "type": "biochemical", "experimental": "as §1, §2"}, "[3]": {"target": "Human CAPN5-PC (Homo sapiens, UniProt O15484)", "sequence (O15484 26-343)": "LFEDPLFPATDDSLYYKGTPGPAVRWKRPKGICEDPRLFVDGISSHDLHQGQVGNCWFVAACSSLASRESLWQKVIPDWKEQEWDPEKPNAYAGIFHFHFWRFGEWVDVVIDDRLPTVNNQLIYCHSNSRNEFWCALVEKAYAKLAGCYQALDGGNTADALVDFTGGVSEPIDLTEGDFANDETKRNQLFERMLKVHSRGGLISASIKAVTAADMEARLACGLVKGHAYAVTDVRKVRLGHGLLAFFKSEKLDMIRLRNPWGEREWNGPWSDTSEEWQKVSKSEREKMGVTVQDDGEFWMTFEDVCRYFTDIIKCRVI", "test": "Human CAPN5-PC | Ki (µM)", "experimental": "Table printed on a drawing sheet, FIG. 1C\nHead of the field: Human CAPN5-PC | Ki (µM)\nThe patent's description of the figure: FIGS. 1A-1C show kinetic analysis of human CAPN5 and rat CAPN1 with the peptide substrates, RQNRGGGCINH (SEQ ID NO:1, FIG. 1A) and PLFAER (SEQ ID NO:2, FIG. 1B).\nFIGS. 1A-1B show kinetic analysis of human CAPN5 and rat CAPN1 with the peptide substrates, RQNRGGGCINH (SEQ ID NO:1, FIG. 1A) and PLFAER (SEQ ID NO:2, FIG. 1B) using this protocol. […] A 10 mM PR1476 master stock was prepared in 100% DMSO. 3.69 mM PR1478 master stock was prepared in 50% DMSO/50% activity buffer.\nFirst copying reader's note: Enzyme kinetic parameters of peptide substrates with calpain protease cores; the ± error stands inside the cells.\nWhere the first naming reader finds the target: head: Human CAPN5-PC"}, "[4]": {"target": "T1, CAPN5-PC p.G267S (Homo sapiens, UniProt O15484, G267S)", "T1 construct": "active recombinant CAPN5 protease core (CAPN5-PC)", "T1 sequence (O15484 26-343 G267S limits assumed)": "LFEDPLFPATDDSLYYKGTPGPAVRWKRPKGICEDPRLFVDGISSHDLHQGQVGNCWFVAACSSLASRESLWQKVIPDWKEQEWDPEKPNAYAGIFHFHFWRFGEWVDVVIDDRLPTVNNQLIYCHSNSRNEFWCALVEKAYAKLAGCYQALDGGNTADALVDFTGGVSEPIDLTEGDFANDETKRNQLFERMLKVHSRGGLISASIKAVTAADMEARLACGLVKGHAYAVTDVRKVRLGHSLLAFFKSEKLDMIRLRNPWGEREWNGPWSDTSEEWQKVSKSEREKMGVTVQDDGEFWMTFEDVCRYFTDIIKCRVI", "test": "In vitro CAPN5 activity assay with consensus FRET peptides", "type": "biochemical", "settings": "1.6 μM CAPN5-PC p.G267S, 10 mM Ca^2+", "experimental": "Consensus FRET peptides were synthesized based on the highest scoring amino acids at each position of the PSSM (Peptides P4′A, P4′P, P2R, and P3GP1′ V) and were tested in our in vitro CAPN5 activity assay (FIG. 9B). These substrates were hydrolyzed by 1.6 μM CAPN5-PC p.G267S in the presence of 10 mM Ca^2+. […] The catalytic efficiency (kcat/Km) of this peptide was higher than the observed kcat/Km for our previously determined PR1476 peptide (11 vs. 7 M^−1s^−1; FIG. 9D)."}, "[5]": {"target": "T2, Calpain-5 protease core domain (CAPN5-PC) (Homo sapiens, UniProt O15484)", "T2 sequence (O15484 26-343 limits assumed)": "T1 sequence (O15484 26-343 G267S limits assumed) with S242G", "test": "CAPN5 functional assay (FRET peptide substrate kinetics)", "protocol": "The assay was performed using a Greiner 96-well Black Small Volume plate according to the following protocol for measuring enzymatic activity of the calpain-5 protease: • Dilute CAPN5 in activity buffer to make a master mix at 3 concentrations. • Add 50 μL of substrate diluted with activity buffer (7 working concentrations at 2×). • Add 50 μL of CAPN5 to each well with multi-channel pipette. • Measure fluorescence activity (336/490 nm) on Tecan Spark at 37° C. for 2 hours with recordings taken every 2 minutes (with lid). • Convert RFU values to nM product using standard curve of EDANS concentrations (2 nM to 5 μM). • Calculate reaction velocity (slope) at each substrate concentration using linear regression. • Calculate Michaelis-Menten kinetic parameters in GraphPad Prism 8."}}, "note": "Residue numbers refer to the chain shown, from its start. Read-outs that look alike come from different tables or passages of the source. No end group written: not given here."}
{"molecule": "CCCC[C@@H](C=O)NC(=O)[C@H](CC(C)C)NC(=O)OCc1ccccc1", "note": "[Calpeptin]", "values": [{"measurement": "IC50", "setting": "[1]", "result": "nanomolar"}, {"measurement": "inhibition of wildtype CAPN5", "setting": "[1]", "result": "inhibit the wildtype"}, {"measurement": "inhibition of CAPN5-R243L (mutant CAPN5)", "setting": "[2]", "result": "did not show any inhibition"}, {"measurement": "inhibition of CAPN5-R243L (mutant CAPN5)", "setting": "[2]; listed as calpeptin", "result": "not the mutant CAPN5"}]}
{"molecule": "RQNRGGGCINH (not fully specified (N-terminus)) [PR1476]", "values": [{"measurement": "Ki", "setting": "[3]", "result": "43 ± 14", "unit": "µM"}]}
{"molecule": "EVKALEEA (also: FRET labels, places not given here) [P4′A, consensus FRET peptide substrate of calpain-5]", "values": [{"measurement": "hydrolysis by CAPN5-PC p.G267S", "setting": "[4]", "result": "hydrolyzed"}]}
{"molecule": "EGKAVLEA (also: FRET labels, places not given here) [P3GP1′V, consensus FRET peptide substrate of calpain-5]", "values": [{"measurement": "hydrolysis by CAPN5-PC p.G267S", "setting": "[4]", "result": "hydrolyzed"}]}
{"molecule": "CC(=O)N[C@@H](CC(C)C)C(=O)N[C@@H](CC(C)C)C(=O)N[C@H](C=O)CCCNC(=N)N", "note": "[Leupeptin]", "values": [{"measurement": "IC50", "setting": "[1]", "result": "nanomolar"}, {"measurement": "inhibition of wildtype CAPN5", "setting": "[1]", "result": "inhibit the wildtype"}, {"measurement": "inhibition of CAPN5-R243L (mutant CAPN5)", "setting": "[2]", "result": "did not show any inhibition"}, {"measurement": "inhibition of CAPN5-R243L (mutant CAPN5)", "setting": "[2]; listed as leupeptin", "result": "not the mutant CAPN5"}]}
{"molecule": "EVRALEEA (also: FRET labels, places not given here) [P2R, consensus FRET peptide substrate of calpain-5]", "values": [{"measurement": "hydrolysis by CAPN5-PC p.G267S", "setting": "[4]", "result": "hydrolyzed"}, {"measurement": "substrate turnover (kcat), preference", "setting": "[4]", "result": "preferred by CAPN5-PC"}]}
{"molecule": "RQNRGGGCINH (N-terminal Dabcyl, EDANS on glutamate, C-terminal cap; calpain-5 peptide substrate) [PR1476]", "values": [{"measurement": "activity as substrate with CAPN5", "setting": "[5]; CAPN5 0, 0.16, 0.49, 1.6 μm, peptide 0 μM to 160 μM", "result": "displays activity in a CAPN5 dose-dependent manner"}, {"measurement": "substrate quality / sensitivity to CAPN5-PC activity", "setting": "[5]; comparison between substrates", "result": "more sensitive than other generic calpain substrates"}]}
{"molecule": "EVKALEEP (also: FRET labels, places not given here) [P4′P, consensus FRET peptide substrate of calpain-5]", "values": [{"measurement": "hydrolysis by CAPN5-PC p.G267S", "setting": "[4]", "result": "hydrolyzed"}]}
